# What was measured:
# [1] = system: A-431; experiment: Antiproliferative activity against human A431 cells after 48 hrs by sulforhodamine B assay; format: functional, cell-based; conditions: A-431, 48 h
# [2] = Antiangiogenic activity in VEGF-165 and bFGF-stimulated chicken embryo chorioallantoic membrane assessed as inhibition of blood vessel formation after 40 hrs by microscopy; format: functional, tissue-based, Gallus gallus
# [3] = Induction of microtubule depolymerization in rat A10 cells after 18 hrs by indirect immunofluorescence assay; format: cell-based
# [4] = system: MDA-MB-435; experiment: Antiproliferative activity against human MDA-MB-435 cells after 48 hrs by sulforhodamine B assay; format: functional, cell-based; conditions: MDA-MB-435, 48 h
# [5] = Ratio of EC50 for microtubule depolymerization in rat A10 cells to IC50 for human MDA-MB-435 cells
# [6] = system: HeLa; experiment: Antiproliferative activity against human HeLa cells overexpressing wild type beta3 tubulin after 48 hrs by sulforhodamine B assay; format: functional, cell-based
# [7] = system: HeLa; experiment: Resistance ratio of IC50 for human HeLa cells overexpressing wild type beta3 tubulin to IC50 for human HeLa cells; format: functional
# [8] = Antiproliferative activity against human SKOV3 cells overexpressing wild type beta3 tubulin after 48 hrs by sulforhodamine B assay; format: functional, cell-based; conditions: SK-OV-3, 48 h
# [9] = Antiproliferative activity against human SKOV3-MDR1-M6/6 cells overexpressing wild type beta3 tubulin after 48 hrs by sulforhodamine B assay; format: functional, cell-based; conditions: SKOV3-MDR1-M6/6, 48 h
# [10] = system: SK-OV-3; experiment: Resistance ratio of IC50 for human SKOV3-MDR1-M6/6 cells to IC50 for human SKOV3 cells; format: functional
# [11] = Growth inhibition of human EKVX cells after 48 hrs by sulforhodamine B assay; format: functional
# [12] = system: HOP-62; experiment: Growth inhibition of human HOP62 cells after 48 hrs by sulforhodamine B assay; format: functional; conditions: HOP-62, 48 h
# [13] = Growth inhibition of human HOP92 cells after 48 hrs by sulforhodamine B assay; format: functional; conditions: HOP-92, 48 h
# [14] = system: NCI-H226; experiment: Growth inhibition of human NCI-H226 cells after 48 hrs by sulforhodamine B assay; format: functional; conditions: NCI-H226, 48 h
# [15] = system: NCI-H23; experiment: Growth inhibition of human NCI-H23 cells after 48 hrs by sulforhodamine B assay; format: functional; conditions: NCI-H23, 48 h
# [16] = system: NCI-H460; experiment: Growth inhibition of human NCI-H460 cells after 48 hrs by sulforhodamine B assay; format: functional; conditions: NCI-H460, 48 h
# [17] = system: NCI-H522; experiment: Growth inhibition of human NCI-H522 cells after 48 hrs by sulforhodamine B assay; format: functional; conditions: NCI-H522, 48 h
# [18] = system: SF-268; experiment: Growth inhibition of human SF268 cells after 48 hrs by sulforhodamine B assay; format: functional; conditions: SF-268, 48 h
# [19] = Growth inhibition of human SF295 cells after 48 hrs by sulforhodamine B assay; format: functional; conditions: SF-295, 48 h
# [20] = Growth inhibition of human SF539 cells after 48 hrs by sulforhodamine B assay; format: functional; conditions: SF-539, 48 h
# [21] = system: SNB-19; experiment: Growth inhibition of human SNB19 cells after 48 hrs by sulforhodamine B assay; format: functional; conditions: SNB-19, 48 h
# [22] = system: SNB-75; experiment: Growth inhibition of human SNB75 cells after 48 hrs by sulforhodamine B assay; format: functional; conditions: SNB-75, 48 h
# [23] = system: U-251; experiment: Growth inhibition of human U251 cells after 48 hrs by sulforhodamine B assay; format: functional; conditions: U-251, 48 h
# [24] = system: IGROV-1; experiment: Growth inhibition of human IGROV1 cells after 48 hrs by sulforhodamine B assay; format: functional; conditions: IGROV-1, 48 h
# [25] = Growth inhibition of human OVCAR3 cells after 48 hrs by sulforhodamine B assay; format: functional; conditions: OVCAR-3, 48 h
# [26] = Growth inhibition of human OVCAR4 cells after 48 hrs by sulforhodamine B assay; format: functional; conditions: OVCAR-4, 48 h
# [27] = Growth inhibition of human OVCAR5 cells after 48 hrs by sulforhodamine B assay; format: functional; conditions: OVCAR-5, 48 h
# [28] = Growth inhibition of human OVCAR8 cells after 48 hrs by sulforhodamine B assay; format: functional; conditions: OVCAR-8, 48 h
# [29] = system: NCI/ADR-RES; experiment: Growth inhibition of human NCI/ADR-RES cells after 48 hrs by sulforhodamine B assay; format: functional
# [30] = system: SK-OV-3; experiment: Growth inhibition of human SKOV3 cells after 48 hrs by sulforhodamine B assay; format: functional; conditions: SK-OV-3, 48 h
# [31] = Growth inhibition of human LOXIMVI cells after 48 hrs by sulforhodamine B assay; format: functional; conditions: LOX IMVI
# [32] = system: M14; experiment: Growth inhibition of human M14 cells after 48 hrs by sulforhodamine B assay; format: functional; conditions: M14, 48 h
# [33] = system: MDA-MB-435; experiment: Growth inhibition of human MDA-MB-435 cells after 48 hrs by sulforhodamine B assay; format: functional; conditions: MDA-MB-435, 48 h
# [34] = system: SK-MEL-2; experiment: Growth inhibition of human SK-MEL-2 cells after 48 hrs by sulforhodamine B assay; format: functional; conditions: SK-MEL-2, 48 h
# [35] = system: SK-MEL-5; experiment: Growth inhibition of human SK-MEL-5 cells after 48 hrs by sulforhodamine B assay; format: functional; conditions: SK-MEL-5, 48 h
# [36] = Growth inhibition of human UACC62 cells after 48 hrs by sulforhodamine B assay; format: functional; conditions: UACC-62, 48 h
# [37] = system: 786-0; experiment: Growth inhibition of human 786-0 cells after 48 hrs by sulforhodamine B assay; format: functional; conditions: 786-0, 48 h
# [38] = system: ACHN; experiment: Growth inhibition of human ACHN cells after 48 hrs by sulforhodamine B assay; format: functional
# [39] = system: CAKI-1; experiment: Growth inhibition of human Caki1 cells after 48 hrs by sulforhodamine B assay; format: functional; conditions: CAKI-1, 48 h
# [40] = Growth inhibition of human RXF393 cells after 48 hrs by sulforhodamine B assay; format: functional; conditions: RXF 393, 48 h
# [41] = system: SN12C; experiment: Growth inhibition of human SN12C cells after 48 hrs by sulforhodamine B assay; format: functional
# [42] = system: TK-10; experiment: Growth inhibition of human TK10 cells after 48 hrs by sulforhodamine B assay; format: functional; conditions: TK-10, 48 h
# [43] = Growth inhibition of human UO31 cells after 48 hrs by sulforhodamine B assay; format: functional; conditions: UO-31, 48 h
# [44] = Growth inhibition of human COLO205 cells after 48 hrs by sulforhodamine B assay; format: functional; conditions: COLO 205, 48 h
# [45] = Growth inhibition of human HCC2998 cells after 48 hrs by sulforhodamine B assay; format: functional; conditions: HCC 2998, 48 h
# [46] = Growth inhibition of human HCT116 cells after 48 hrs by sulforhodamine B assay; format: functional; conditions: HCT-116, 48 h
# [47] = Growth inhibition of human HCT15 cells after 48 hrs by sulforhodamine B assay; format: functional; conditions: HCT-15, 48 h
# [48] = system: HT-29; experiment: Growth inhibition of human HT-29 cells after 48 hrs by sulforhodamine B assay; format: functional; conditions: HT-29, 48 h
# [49] = system: KM12; experiment: Growth inhibition of human KM12 cells after 48 hrs by sulforhodamine B assay; format: functional; conditions: KM12, 48 h
# [50] = system: SW-620; experiment: Growth inhibition of human SW620 cells after 48 hrs by sulforhodamine B assay; format: functional; conditions: SW-620, 48 h
# [51] = Growth inhibition of human PC3 cells after 48 hrs by sulforhodamine B assay; format: functional; conditions: PC-3, 48 h
# [52] = system: DU-145; experiment: Growth inhibition of human DU145 cells after 48 hrs by sulforhodamine B assay; format: functional; conditions: DU-145, 48 h
# [53] = system: MCF7; experiment: Growth inhibition of human MCF7 cells after 48 hrs by sulforhodamine B assay; format: functional; conditions: MCF7, 48 h
# [54] = system: MDA-MB-231; experiment: Growth inhibition of human MDA-MB-231 cells after 48 hrs by sulforhodamine B assay; format: functional; conditions: MDA-MB-231, 48 h
# [55] = Growth inhibition of human Hs 578T cells after 48 hrs by sulforhodamine B assay; format: functional
# [56] = Growth inhibition of human BT549 cells after 48 hrs by sulforhodamine B assay; format: functional; conditions: BT-549, 48 h
# [57] = system: MDA-MB-468; experiment: Growth inhibition of human MDA-MB-468 cells after 48 hrs by sulforhodamine B assay; format: functional; conditions: MDA-MB-468, 48 h
# [58] = system: CCRF-CEM; experiment: Growth inhibition of human CCRF-CEM cells after 48 hrs by sulforhodamine B assay; format: functional
# [59] = system: HL-60(TB); experiment: Growth inhibition of human HL-60(TB) cells after 48 hrs by sulforhodamine B assay; format: functional; conditions: HL-60, 48 h
# [60] = system: K562; experiment: Growth inhibition of human K562 cells after 48 hrs by sulforhodamine B assay; format: functional; conditions: K562, 48 h
# [61] = Growth inhibition of human MOLT4 cells after 48 hrs by sulforhodamine B assay; format: functional; conditions: MOLT-4, 48 h
# [62] = Growth inhibition of human […] cells after 48 hrs by sulforhodamine B assay; format: functional
# [63] = system: SR; experiment: Growth inhibition of human SR cells after 48 hrs by sulforhodamine B assay; format: functional
smiles,measurement,setting,value
Cc1nc(N(C)c2ccc3occc3c2)c2cc(C)oc2n1,IC50,[1],73.2 nM
same,IC50,[2],15200 nM
same,EC50,[3],3790 nM
same,IC50,[4],133 nM
same,Ratio,[5],28
same,IC50,[6],243 nM
same,Ratio IC50,[7],0.8
same,IC50,[8],425 nM
same,IC50,[9],509 nM
same,Ratio IC50,[10],1.2
same,GI50,[11],396 nM
same,GI50,[12],75.2 nM
same,GI50,[13],226 nM
same,GI50,[14],217 nM
same,GI50,[15],206 nM
same,GI50,[16],138 nM
same,GI50,[17],29.9 nM
same,GI50,[18],527 nM
same,GI50,[19],41.7 nM
same,GI50,[20],60.9 nM
same,GI50,[21],93.6 nM
same,GI50,[22],103 nM
same,GI50,[23],84 nM
same,GI50,[24],142 nM
same,GI50,[25],30 nM
same,GI50,[26],553 nM
same,GI50,[27],531 nM
same,GI50,[28],330 nM
same,GI50,[29],37.6 nM
same,GI50,[30],98 nM
same,GI50,[31],162 nM
same,GI50,[32],47.3 nM
same,GI50,[33],21.1 nM
same,GI50,[34],82.4 nM
same,GI50,[35],50.4 nM
same,GI50,[36],57.1 nM
same,GI50,[37],1040 nM
same,GI50,[38],265 nM
same,GI50,[39],57.9 nM
same,GI50,[40],57.2 nM
same,GI50,[41],611 nM
same,GI50,[42],382 nM
same,GI50,[43],278 nM
same,GI50,[44],139 nM
same,GI50,[45],185 nM
same,GI50,[46],77.1 nM
same,GI50,[47],51.9 nM
same,GI50,[48],51.9 nM
same,GI50,[49],58.4 nM
same,GI50,[50],58.8 nM
same,GI50,[51],183 nM
same,GI50,[52],198 nM
same,GI50,[53],43.8 nM
same,GI50,[54],223 nM
same,GI50,[55],51.7 nM
same,GI50,[56],432 nM
same,GI50,[57],31.5 nM
same,GI50,[58],121 nM
same,GI50,[59],41.2 nM
same,GI50,[60],40.4 nM
same,GI50,[61],211 nM
same,GI50,[62],389 nM
same,GI50,[63],62.4 nM
